Laboratory results as given in patent US6423853B1, “Continuous ozonolysis of cycloalkenes into ozonides” (E. I. du Pont de Nemours & Comp., priority 2001, dated 2002).

Key:
[1] = solubility in propionic acid; details: using cyclododecene in the present process
Method: A reactor system consisting of a jacketed 1 inch, 10 tray glass Oldershaw column, 250 cc bottom receiver, feed pump, and recycle pump were assembled. The initial feed material consisted of 102 g. of propionic acid solvent and 18 g. of cyclododecene. 120 g. of the initial feed material were charged into the reactor system. The temperature of the jacket on the Oldershaw column was adjusted to 20° C. and a recycle flow of 50 cc/min. was established using the recycle pump. An ClearWater Tech modelM-1500 ozone generator was attached to the system. A carrier gas consisting of 20% oxygen in carbon dioxide was fed to the reactor at 2000 cc/min. The gas exit the ozone generator was measured to contain 0.80% ozone. […] At that point, the additional 18 g. of pure CDDM solution was fed to the top of the column at a rate of 00.15 cc/min. The balance between the ozone and the cyclododecene fed allowed an excess of ozone in the reactor off gas at all times.

[2] = disclosed in Maggiolo patent; cited from earlier work

Q: Which “ozonide solubility in propionic acid” value [1] does the source give for C1CCCCCC2OOC(CCCC1)O2 [ozonide, cyclododecene ozonide] here?
A: about 27.5%

Q: For C1=CCCCCCC1 [cyclooctene], which “solubility in isobutyric acid” value [2] is on record?
A: 20%
